These results are taken from US4450279A, “Dialkylthioxanthones” (priority 1981, dated 1984).

What is called solubility is the concentration that dissolves in the medium under given conditions.

In brackets after ≈: the same amount, converted by molar mass. Like-named read-outs stand apart in the source and are kept apart here.

A short description of data set [1]: Hardening time of photopolymerizable resin film under continuous xenon lamp irradiation (until surface ceases to be sticky). The text has this:
Bisphenol A diglycidyl ether diacrylate
(§1) Trimethylolpropane triacrylate
Triethanolamine 2.5 parts by weight
Photopolymerization initiator of formula (I)
(dialkylthioxanthone derivative)
Irradiation device and conditions: […]

The nature of data set [2]: Yellowing resistance of coating film after irradiation, estimated visually. Set-up: key: A: Only slight yellowing; B: Clear yellowing; C: Remarkable yellowing.
From the text: The above photopolymerizable resin composition was applied to a glass plate in a thickness of 25μ and left 9 cm below a xenone lamp. The sensitivity was judged by measuring the time until the surface of the coated film ceases to be sticky (whether the coated film is sticky or not is judged by the touch with finger) under the continuous irradiation.
*^1 Yellowing resistance in the above table was estimated
visually from the state of the coating film after the
For data set [3] the following is noted: unsubstituted thioxanthone, background; cited from earlier work.
The conditions of data set [4]: dispersed in resin, storage for a long period; background; cited from earlier work.
The nature of data set [5]: Solubility in organic solvents. The class given is physicochemical. Particulars: organic solvent or mixture.
Data set [6] in a line: Pencil hardness of pigmented coating film after passing under high-pressure mercury lamp (JIS K 5400). Conditions: for Pencil hardness after passing 3 times / Pencil hardness after passing 5 times: composition (A), carbon black; for Pencil hardness after passing 3 times: 3 passages; for Pencil hardness after passing 5 times: 5 passages; for Pencil hardness after passing 6 times: composition (B), titanium oxide, 6 passages. The protocol:
(§2) The following photopolymerizable resin compositions (A) and (B) were prepared. Each of the compositions was applied to an aluminum plate in a thickness of 25μ. The aluminum plate was placed on a belt conveyer moving 20 cm below an 80 W/cm high-pressure mercury lamp at a speed of 18 m/min. Relationship between the number of passage times and physical properties of the coating film was examined to obtain the results shown in Table V.
(A) Carbon black-containing composition:
Epoxy acrylate resin (Shell
as §1
Hexanediol diacrylate 14.8 parts by weight
Carbon black 2.5 parts by weight
Methyldiethanolamine 2.0 parts by weight
(§3) Photopolymerization initiator of
(§4) (B) Titanium oxide-containing
(§5) Urethane acrylate resin
(§6) Butyl acrylate 18.8 parts by weight
(§7) Vinylpyrrolidone 9.4 parts by weight
(§8) Titanium oxide (rutile type)
(§9) Methyldiethanolamine 1.5 parts by weight
*^2 Pencil hardness was determined according to JISK 5400 6, 14.

The nature of data set [7]: Yellowing resistance of pigmented coating film. Set-up: key: A: Only slight yellowing; B: Clear yellowing; C: Remarkable yellowing. Conditions: Table V; composition (B), titanium oxide; same criteria as Table II. As to the method:
as §2, §4, §5, §1, §6, §7, §8, §9, §3
*^3 Yellowing resistance was estimated based on the same criteria as i

Data set [8] can be described thus: Hardening of trifunctional maleimide photopolymerizable resin film under high-pressure mercury lamp. Conditions: 2.5 parts per 100 parts resin; 50μ on glass; 80 W/cm Hg lamp, 10 cm, 20 sec. The protocol:
16 Parts of diglycerol triglycidyl ether, 23 parts by weight of α-phenylmaleimidoacetic acid, 0.2 part by weight of dimethylaminoethyl methacrylate and 40 parts by weight of butyl acetate were reacted together at 90°-100° C. for 2 h to obtain a trifunctional photopolymerizable resin in which α-phenylmaleimidoacetic acid was added to substantially all glycidyl groups. 2.5 Parts by weight of 2,4-diisopropylthioxanthone of the present invention was added to 100 parts by weight of the above resin and the whole was kneaded thoroughly and applied onto a glass plate in a thickness of 50μ. […] In case 2,4-diisopropylthioxanthone was not added, the film was not hardened even after 60 min.

The mark [9] stands for this setting: Table III, Control Example 1, same criteria as Table II.
Where [10] appears, read: 1,2-dichloroethane, read-out: Solubility, 1,2-Dichloroethane.
Where [11] appears, read: 1,2-dichloropropane, read-out: Solubility, 1,2-Dichloropropane.
The mark [12] stands for this setting: acetone, read-out: Solubility, Acetone.
The mark [13] stands for this setting: ethanol, read-out: Solubility, Ethanol.
Where [14] appears, read: ethyl acetate, read-out: Solubility, Ethyl acetate.
[15] abbreviates: methanol, read-out: Solubility, Methanol.
Setting [16] is: toluene, read-out: Solubility, Toluene.
Setting [17] is: Table II, 2.5 parts initiator, 2.5 parts triethanolamine, 25μ film on glass, xenon lamp 9 cm.
[18] abbreviates: Table II, visual, after irradiation.

On to `CCc1ccc(CC)c2c(=O)c3ccccc3sc12` [1,4-Diethylthioxanthone], for which the Hardening time in data set [1] (Table III, Control Example 1) came to 50 s. For the same compound, the Yellowing resistance entry in data set [2] (setting [9]) is given as “A”.
In the case of `CC(C)c1ccc(C(C)C)c2c(=O)c3ccccc3sc12` [1,4-Diisopropylthioxanthone], in data set [1] (Table III, Control Example 1), the Hardening time came to 50 s. In addition, in data set [2] (setting [9]), the Yellowing resistance entry is listed as “A”.
The like results for `Cc1ccc(C)c2c(=O)c3ccccc3sc12` [1,4-Dimethylthioxanthone] were, in that order, 40 s and “B”.
In turn, `CCc1c(C(C)C)ccc2sc3ccccc3c(=O)c12` [1-Ethyl-2-isopropylthioxanthone] displayed a Hardening time in data set [1] (Table III, Control Example 1) of 50 s. Moreover, the Yellowing resistance entry in data set [2] (setting [9]) is “A”.
`CCc1ccc2sc3ccccc3c(=O)c2c1C` [1-Methyl-2-ethylthioxanthone]: in data set [1] (Table III, Control Example 1), the Hardening time is > 60 s.
Turning to `CCc1ccc(C)c2c(=O)c3ccccc3sc12` [1-Methyl-4-ethylthioxanthone], the Hardening time in data set [1] (Table III, Control Example 1) was determined as 50 s. Further, the Yellowing resistance entry in data set [2] (setting [9]) is “B”.
With `O=c1c2ccccc2sc2ccccc12` [Compound 1, thioxanthone], the “Solubility in and compatibility with photopolymerizable compound” value in data set [3] was “poor solubility”. Also, in data set [4], the Crystallization during storage entry is on record as “crystallizes out during the storage for a long period of time”. Further, in data set [1] (Table III, Control Example 1), the Hardening time was > 60 s. Also, the solubility was 11 mg/mL (≈ 51.8 mM) in data set [5] (setting [10]); < 5 mg/mL in data set [5] (setting [11]); < 5 mg/mL in data set [5] (setting [12]); < 5 mg/mL in data set [5] (setting [13]); 5 mg/mL (≈ 23.6 mM) in data set [5] (setting [14]); < 5 mg/mL in data set [5] (setting [15]). Moreover, the solubility in data set [5] (setting [16]) is < 5 mg/mL.
For the compound `Cc1ccc2sc3ccccc3c(=O)c2c1` [Compound 2, 2-methylthioxanthone], the solubility in data set [5] (setting [10]) was 166 mg/mL (≈ 734 mM); in data set [5] (setting [11]), 77 mg/mL (≈ 340 mM); in data set [5] (setting [12]) it was 30 mg/mL (≈ 133 mM); in data set [5] (setting [13]), < 10 mg/mL; in data set [5] (setting [14]) it was 29 mg/mL (≈ 128 mM); in data set [5] (setting [15]) it was < 10 mg/mL. Also, in data set [5] (setting [16]), the solubility stood at 55 mg/mL (≈ 243 mM).
For `CC(C)c1ccc2sc3ccccc3c(=O)c2c1` [Compound 3, 2-isopropylthioxanthone], the solubility was > 500 mg/mL in data set [5] (setting [10]); > 500 mg/mL in data set [5] (setting [11]); 300 mg/mL (≈ 1180 mM) in data set [5] (setting [12]); 36 mg/mL (≈ 142 mM) in data set [5] (setting [13]); 300 mg/mL (≈ 1180 mM) in data set [5] (setting [14]); 33 mg/mL (≈ 130 mM) in data set [5] (setting [15]). For the same compound, the solubility in data set [5] (setting [16]) was > 500 mg/mL.
Turning to `CCc1cc(CC)c2sc3ccccc3c(=O)c2c1` [Example 1, 2,4-diethylthioxanthone], in data set [6], the “Pencil hardness after passing 3 times” value was found to be 3H, the “Pencil hardness after passing 5 times” value is 6H and the “Pencil hardness after passing 6 times” value was 3H. The Yellowing resistance result in data set [7] is “A”. In data set [1] (setting [17]), this compound registered a Hardening time of 15 s. Besides, in data set [2] (setting [18]), the Yellowing resistance entry is on record as “A”.
As for `CC(C)c1cc(C(C)C)c2sc3ccccc3c(=O)c2c1` [Example 2, 2,4-diisopropylthioxanthone], the Hardened coating film entry in data set [8] is recorded as “coating film insoluble in dichloroethane or acetone”. The “Pencil hardness after passing 3 times” value in data set [6] was found to be 4H. The “Pencil hardness after passing 5 times” value in data set [6] was ≥ 6H. Also, in data set [6], the “Pencil hardness after passing 6 times” value was found to be 4H. In addition, the Yellowing resistance result in data set [7] and in data set [2] (setting [18]) was “A” each time. The compound also had a Hardening time in data set [1] (setting [17]) of 10 s. Moreover, the solubility is > 500 mg/mL in data set [5] (setting [10]); > 500 mg/mL in data set [5] (setting [11]); > 400 mg/mL in data set [5] (setting [12]); 90 mg/mL (≈ 304 mM) in data set [5] (setting [13]); > 500 mg/mL in data set [5] (setting [14]); 60 mg/mL (≈ 202 mM) in data set [5] (setting [15]). Further, the solubility in data set [5] (setting [16]) was > 500 mg/mL.
In data set [1] (setting [17]), `Cc1cc(C(C)(C)C)cc2c(=O)c3ccccc3sc12` [Example 5, m-tert-butylmethyl thioxanthone] came in with a Hardening time of 15 s. Also, in data set [2] (setting [18]), the Yellowing resistance entry is given as “A”.
`CC(C)(C)c1cc(C(C)(C)C)c2sc3ccccc3c(=O)c2c1` [Example 10, 2,4-di-tert-butylthioxanthone]: in data set [1] (setting [17]), the Hardening time came out at 25 s. In data set [2] (setting [18]), the Yellowing resistance entry is reported as “A”.
On to `CC(C)c1ccc2sc3ccccc3c(=O)c2c1` [Isopropylthioxanthone], for which, in data set [1] (Table III, Control Example 1), the Hardening time amounted to 20 s. The Yellowing resistance result in data set [2] (setting [9]) is “B”.
With Ethylthioxanthone, the Hardening time in data set [1] (Table III, Control Example 1) was found to be 40 s. The Yellowing resistance entry in data set [2] (setting [9]) was “C”.
Regarding Methylthioxanthone, the Hardening time in data set [1] (Table III, Control Example 1) came out at 40 s. The Yellowing resistance result in data set [2] (setting [9]) is recorded as “C”.
